Test system: Enterobacter cloacae (ECL) isolates
Assay: MIC of compounds alone and combined with antibacterials, broth microdilution (CLSI)
Format: cell-based
Method: Method 2: MIC of Compounds Alone and Combined with Antibacterials Against Bacterial Isolates
Compounds of the present invention were assessed against genotyped bacterial strains (Table 3, 4) alone or in combination with an antibacterial (Table 2). […] Log phase bacterial suspensions were adjusted to a final density of 5.10^5 CFU/mL in cation-adjusted Mueller-Hinton broth (ca-MHB; Becton-Dickinson and Company) and added to each well (98 μL). Microplates were incubated for 16-20 h at 35° C. in ambient air. The MIC of the compounds was defined as the lowest concentration of said compounds that prevented bacterial growth as read by visual inspection. The MIC of ATB at each compound concentration was defined as the lowest concentration of ATB that prevented bacterial growth as read by visual inspection.

Question: Which results are given for C=CC1=C(C(=O)O)N2C(=O)[C@@H](NC(=O)/C(=N\OCC(=O)O)c3csc(N)n3)[C@H]2SC1 [FIX, Cefixime]?
Answer: MIC ATB in combination (ECL 260033, CLA @ 4 μg/mL): >128 µg/mL; MIC ATB in combination (ECL 260253, AF2 @ 8 μg/mL): <0.25 µg/mL; MIC ATB in combination (ECL 260253, AF3 @ 8 μg/mL): <=0.25 μg/mL; MIC ATB in combination (ECL 260253, CLA @ 4 μg/mL): 64 µg/mL; MIC ATB in combination (ECL 260323, AF2 @ 8 μg/mL): <0.25 µg/mL; MIC ATB in combination (ECL 260323, AF3 @ 8 μg/mL): <0.25 µg/mL; MIC ATB in combination (ECL 260323, CLA @ 4 μg/mL): >128 µg/mL; MIC ATB in combination (ECL 260508, AF2 @ 8 μg/mL): <0.25 µg/mL; MIC ATB in combination (ECL 260508, AF3 @ 8 μg/mL): <=0.25 μg/mL; MIC ATB in combination (ECL 260508, CLA @ 4 μg/mL): 32 µg/mL; MIC ATB in combination (ECL HAN, AF2 @ 8 μg/mL): >128 µg/mL; MIC ATB in combination (ECL HAN, AF3 @ 8 μg/mL): >128 µg/mL; MIC ATB in combination (ECL HAN, CLA @ 4 μg/mL): >128 µg/mL; MIC ATB in combination (ECL NEM146383, AF2 @ 8 μg/mL): >128 µg/mL; MIC ATB in combination (ECL NEM146383, AF3 @ 8 μg/mL): 16 µg/mL; MIC ATB in combination (ECL NEM146383, CLA @ 4 μg/mL): >128 µg/mL; MIC ATB in combination (ECL P99, AF2 @ 8 μg/mL): 4 µg/mL; MIC ATB in combination (ECL P99, AF3 @ 8 μg/mL): 8 µg/mL; MIC ATB in combination (ECL P99, CLA @ 4 μg/mL): >128 µg/mL; MIC ATB in combination (ECL UFR12, AF2 @ 8 μg/mL): <=0.25 μg/mL; MIC ATB in combination (ECL UFR12, AF3 @ 8 μg/mL): <=0.25 μg/mL; MIC ATB in combination (ECL UFR12, CLA @ 4 μg/mL): 8 µg/mL; MIC ATB in combination (ECL UFR13, AF2 @ 8 μg/mL): 4 µg/mL; MIC ATB in combination (ECL UFR13, AF3 @ 8 μg/mL): 2 µg/mL; MIC ATB in combination (ECL UFR13, CLA @ 4 μg/mL): 128 µg/mL; MIC ATB in combination (ECL UFR14, AF2 @ 8 μg/mL): 32 µg/mL; MIC ATB in combination (ECL UFR14, AF3 @ 8 μg/mL): 32 µg/mL; MIC ATB in combination (ECL UFR14, CLA @ 4 μg/mL): >128 µg/mL; MIC ATB in combination (ECL UFR38, AF2 @ 8 μg/mL): <0.25 µg/mL; MIC ATB in combination (ECL UFR38, AF3 @ 8 μg/mL): >128 µg/mL; MIC ATB in combination (ECL UFR38, CLA @ 4 μg/mL): >128 µg/mL; MIC ATB in combination (ECL UFR51, AF2 @ 8 μg/mL): <0.25 µg/mL; MIC ATB in combination (ECL UFR51, AF3 @ 8 μg/mL): <0.25 µg/mL; MIC ATB in combination (ECL UFR51, CLA @ 4 μg/mL): >128 µg/mL; MIC ATB in combination (ECL UFR60, AF2 @ 8 μg/mL): 128 µg/mL; MIC ATB in combination (ECL UFR60, AF3 @ 8 μg/mL): 8 µg/mL; MIC ATB in combination (ECL UFR60, CLA @ 4 μg/mL): 128 µg/mL; MIC ATB in combination (ECL UFR70, AF2 @ 8 μg/mL): <=0.25 μg/mL; MIC ATB in combination (ECL UFR70, AF3 @ 8 μg/mL): <0.25 µg/mL; MIC ATB in combination (ECL UFR70, CLA @ 4 μg/mL): >128 µg/mL; MIC ATB in combination (ECL UFR84, AF2 @ 8 μg/mL): >128 µg/mL; MIC ATB in combination (ECL UFR84, AF3 @ 8 μg/mL): 64 µg/mL; MIC ATB in combination (ECL UFR84, CLA @ 4 μg/mL): >128 µg/mL; MIC ATB in combination (ECL UFR85, AF2 @ 8 μg/mL): <0.25 µg/mL; MIC ATB in combination (ECL UFR85, AF3 @ 8 μg/mL): 1 µg/mL; MIC ATB in combination (ECL UFR85, CLA @ 4 μg/mL): >128 µg/mL; MIC ATB in combination (ECL UFR200, AF2 @ 8 μg/mL): 1 µg/mL; MIC ATB in combination (ECL UFR200, AF3 @ 8 μg/mL): 0.5 µg/mL; MIC ATB in combination (ECL UFR200, CLA @ 4 μg/mL): 16 µg/mL; MIC (strain ECL 2185D, genotype OXA-163): >128 µg/mL; MIC (strain ECL 190310, genotype AmpC): >128 µg/mL; MIC (strain ECL 190408, genotype TEM-1, CTX-M-15, OXA-1): 512 µg/mL; MIC (strain ECL 200138, genotype AmpC): >128 µg/mL; MIC (strain ECL 200322, genotype TEM-1, CTX-M-15, OXA-1): >128 µg/mL; MIC (strain ECL 260033, genotype AmpC): >128 µg/mL; MIC (strain ECL 260253, genotype TEM-1, KPC-3): >128 µg/mL; MIC (strain ECL 260323, genotype AmpC): >128 µg/mL; MIC (strain ECL 260508, genotype TEM-1, CTX-M-15): >128 µg/mL; MIC (strain ECL HAN, genotype OXA-35): >128 µg/mL; MIC (strain ECL NEM146383, genotype AmpC): >128 µg/mL; MIC (strain ECL P99, genotype AmpC): >128 µg/mL; MIC (strain ECL UFR12, genotype CTX-M-9, OXA-48): 16 µg/mL; MIC (strain ECL UFR13, genotype TEM-1, SHV-12, CTX-M-9, OXA-48): >128 µg/mL; MIC (strain ECL UFR14, genotype TEM-1, SHV-12, CTX-M-15, DHA-1, OXA-1, OXA-48): >128 µg/mL; MIC (strain ECL UFR38, genotype CTX-M-15, NDM-1): >128 µg/mL; MIC (strain ECL UFR51, genotype SHV-12, IMP-8): >128 µg/mL; MIC (strain ECL UFR60, genotype TEM-1, CTX-M-15, KPC-2): >128 µg/mL; MIC (strain ECL UFR70, genotype TEM-1, CTX-M-15, CMY-2, OXA-1, Porin loss): >128 µg/mL; MIC (strain ECL UFR84, genotype TEM-1, AmpC, OXA-1): >128 µg/mL; MIC (strain ECL UFR85, genotype TEM-1, CTX-M-15, AmpC): >128 µg/mL; MIC (strain ECL UFR192, genotype TEM-1, NDM-1, antibiotic alone): >128 µg/mL; MIC ATB in combination (strain ECL UFR192, with AF2 @ 8 μg/mL): >128 µg/mL; MIC ATB in combination (strain ECL UFR192, with AF3 @ 8 μg/mL): >128 µg/mL; MIC ATB in combination (strain ECL UFR192, with CLA @ 4 μg/mL): >128 µg/mL; MIC (strain ECL UFR193, genotype TEM-1, CTX-M-15, OXA-1, NDM-1, RmtC, antibiotic alone): >128 µg/mL; MIC ATB in combination (strain ECL UFR193, with AF2 @ 8 μg/mL): >128 µg/mL; MIC ATB in combination (strain ECL UFR193, with AF3 @ 8 μg/mL): <=0.25 μg/mL; MIC ATB in combination (strain ECL UFR193, with CLA @ 4 μg/mL): >128 µg/mL; MIC (strain ECL UFR194, genotype OXA-48): 4 µg/mL; MIC ATB in combination (strain ECL UFR194, with AF2 @ 8 μg/mL): <=0.25 μg/mL; MIC ATB in combination (strain ECL UFR194, with AF3 @ 8 μg/mL): <=0.25 μg/mL; MIC ATB in combination (strain ECL UFR194, with CLA @ 4 μg/mL): 8 µg/mL; MIC (strain ECL UFR195, genotype TEM-1, CTX-M-15, OXA-1, OXA-48): >128 µg/mL; MIC ATB in combination (strain ECL UFR195, with AF2 @ 8 μg/mL): 8 µg/mL; MIC ATB in combination (strain ECL UFR195, with AF3 @ 8 μg/mL): 0.5 µg/mL; MIC ATB in combination (strain ECL UFR195, with CLA @ 4 μg/mL): >128 µg/mL; MIC (strain ECL UFR196, genotype TEM-1, CTX-M-15, OXA-1, OXA-48): >128 µg/mL; MIC ATB in combination (strain ECL UFR196, with AF2 @ 8 μg/mL): 8 µg/mL; MIC ATB in combination (strain ECL UFR196, with AF3 @ 8 μg/mL): 2 µg/mL; MIC ATB in combination (strain ECL UFR196, with CLA @ 4 μg/mL): >128 µg/mL; MIC (strain ECL UFR197, genotype TEM-1, CTX-M-15, OXA-1, OXA-48): >128 µg/mL; MIC ATB in combination (strain ECL UFR197, with AF2 @ 8 μg/mL): 32 µg/mL; MIC ATB in combination (strain ECL UFR197, with AF3 @ 8 μg/mL): 4 µg/mL; MIC ATB in combination (strain ECL UFR197, with CLA @ 4 μg/mL): 128 µg/mL; MIC (strain ECL UFR198, genotype TEM-1, SHV-12, CTX-M-15, DHA-1, OXA-1, OXA-48): >128 µg/mL; MIC ATB in combination (strain ECL UFR198, with AF2 @ 8 μg/mL): 128 µg/mL; MIC ATB in combination (strain ECL UFR198, with AF3 @ 8 μg/mL): 32 µg/mL; MIC ATB in combination (strain ECL UFR198, with CLA @ 4 μg/mL): >128 µg/mL; MIC (strain ECL UFR200, genotype TEM-1, SHV-12, KPC-2): >128 µg/mL; MIC (strain ECL UFR203, genotype TEM-1, SHV-12, VIM-1, antibiotic alone): >128 µg/mL; MIC ATB in combination (strain ECL UFR203, with AF2 @ 8 μg/mL): >128 µg/mL; MIC ATB in combination (strain ECL UFR203, with AF3 @ 8 μg/mL): >128 µg/mL; MIC ATB in combination (strain ECL UFR203, with CLA @ 4 μg/mL): >128 µg/mL; MIC (strain ECL UFR214, genotype TEM-1, SHV-31, CTX-M-15, VIM-4, antibiotic alone): >128 µg/mL; MIC ATB in combination (strain ECL UFR214, with AF2 @ 8 μg/mL): >128 µg/mL; MIC ATB in combination (strain ECL UFR214, with AF3 @ 8 μg/mL): >128 µg/mL; MIC ATB in combination (strain ECL UFR214, with CLA @ 4 μg/mL): >128 µg/mL; MIC (strain ECL UFR252PT, genotype VIM-2, antibiotic alone): >128 µg/mL; MIC ATB in combination (strain ECL UFR252PT, with AF2 @ 8 μg/mL): >128 µg/mL; MIC ATB in combination (strain ECL UFR252PT, with AF3 @ 8 μg/mL): >128 µg/mL; MIC ATB in combination (strain ECL UFR252PT, with CLA @ 4 μg/mL): >128 µg/mL

Reference: patent publication US20200017495A1, “NOVEL HETEROCYCLIC COMPOUNDS AND THEIR USE IN PREVENTING OR TREATING BACTERIAL INFECTIONS” (priority 2017, published 2020)
